The source of these data is patent US20260151399A1, “COMBINATIONS OF LSD1 INHIBITORS AND MENIN INHIBITORS FOR TREATING CANCER” (ORYZON GENOMICS, S.A., priority 2022, published 2026).

Common to all, as to assay: Single agent viability assay (96 hours, alamarBlue)
Format in all cases: cell-based
Background: Resazurin is reduced to fluorescent resorufin, in cell work by metabolically active cells.

One data set concerns OCI-AML3. The conditions noted are these: for EC50: Homo sapiens, OCI-AML-3, mean, 96 hours incubation, N=2. How it is done:
(§1) Mycoplasma-free AML cell lines were maintained in RPMI 10% FBS medium at 37° C. in a humidified incubator with controlled 5% CO2 atmosphere. Cell freezing and thawing was performed following recommendation from ATCC. Genetic profiling of the cell lines used is available in Table 1.
(§2) Cells were seeded in 96-well plates at the optimal density to guarantee linear growth throughout the assay (8000 cells/well for MV(4;11), 4000 cells/well for MOLM-13 and OCI-AML3) in 50 μL of medium. Each experimental condition was tested in technical triplicates, including medium-only and vehicle-treated controls for background correction and normalization, respectively. After seeding, 50 μL of medium containing 9 serial dilutions of 2×-concentrated compound were added to the cells to obtain 100 μL of cells with 1×-concentrated compound at each dilution (DMSO %<0.5%). Cells were then incubated for 96 hours at 37° C. in a controlled 5% CO2 atmosphere, prior to evaluation of cell viability using alamarBlue™ cell viability reagent (ThermoFisher Scientific, Waltham, MA/USA). AlamarBlue™ is a cell viability indicator that uses the natural reducing power of living cells to convert resazurin to the fluorescent molecule resorufin. Briefly, alamarBlue™ stock solution was diluted 1:20 in the culture medium and after 3 hours incubation fluorescence was measured using a TECAN Infinity 2000 plate reader (Tecan Group Ltd., Mannedorf, CH; 540-570 nm excitation wavelength, 580-610 nm emission wavelength). For each condition, the average fluorescence was calculated from the 3 technical replicates; background correction was calculated from the fluorescence of medium-only controls. Data were analyzed using the GraphPad PRISM® version 9.0.1 (GraphPad Software, Inc., La Jolla, CA/USA) to calculate the best-fitting curves and the EC50 values.

A further data set has as its system MOLM-13. To be noted: for EC50: Homo sapiens, MOLM-13, mean, 96 hours incubation, N=2; for EC50 (range in words) / reduction of viability (compared to vehicle controls): MOLM-13, 96 hours. The protocol: as §1, §2
The subject of the next data set is MV(4;11). To be noted: for EC50: Homo sapiens, MV4-11, mean, 96 hours incubation, N=2; for EC50 (range in words) / reduction of viability (compared to vehicle controls): MV(4;11), 96 hours. The protocol:
as §1, §2

Regarding `CN1CCN(C(=O)[C@H](CCCN[C@@H]2C[C@H]2c2ccc(F)cc2)NC(=O)c2ccc(-n3ccnn3)cc2)CC1` [bomedemstat, N-[(2S)-5-{[(1R,2S)-2-(4-fluorophenyl)cyclopropyl]amino}-1-(4-methylpiperazin-1-yl)-1-oxopentan-2-yl]-4-(1H-1,2,3-triazol-1-yl)benzamide], the EC50 was found to be 1.4 nM in the data set on OCI-AML3, 3.55 nM in the data set with MOLM-13 and 2.9 nM with MV(4;11).
With `COc1ccc(-c2c(-c3ccc(C#N)c(F)c3)nc(N3CCC(N)CC3)n(C)c2=O)cc1F` [pulrodemstat, 4-[2-(4-aminopiperidin-1-yl)-5-(3-fluoro-4-methoxyphenyl)-1-methyl-6-oxo-1,6-dihydropyrimidin-4-yl]-2-fluorobenzonitrile], the EC50 came out at 0.99 nM with OCI-AML3, 1.15 nM in the data set with MOLM-13 and 1.1 nM in the data set with MV(4;11).
Turning to `CCN(C(=O)c1cc(F)ccc1Oc1cncnc1N1CC2(CCN(C[C@H]3CC[C@H](NS(=O)(=O)CC)CC3)CC2)C1)C(C)C` [revumenib, 2-{[4-(7-{[trans-4-(ethanesulfonamido)cyclohexyl]methyl}-2,7-diazaspiro[3.5]nonan-2-yl)pyrimidin-5-yl]oxy}-N-ethyl-5-fluoro-N-(propan-2-yl)benzamide], the EC50 in the data set with OCI-AML3 is 53.2 nM; in the data set with MOLM-13, 32 nM; in the data set with MV(4;11), 9.58 nM. The “EC50 (range in words)” value with OCI-AML3 (OCI-AML3, 96 hours) is on record as “nanomolar range”; in the data set on MOLM-13, “nanomolar range”; in the data set with MV(4;11) it was “nanomolar range”. For the same compound, the “reduction of viability (compared to vehicle controls)” value (shortened to “reduction of viability”) was “around 50%” in the data set with OCI-AML3 (OCI-AML3, 96 hours); “around 70%” with MOLM-13; about 100% in the data set on MV(4;11).
Take `N[C@H]1CC[C@H](N[C@@H]2C[C@H]2c2ccccc2)CC1` [iadademstat, (trans)-N1-((1R,2S)-2-phenylcyclopropyl)cyclohexane-1,4-diamine]: the values for the EC50 in the data set on OCI-AML3, in the data set on MOLM-13 and in the data set on MV(4;11) were 0.13 nM, 0.2 nM and 0.16 nM, respectively.
As to `CC(C)(C)OC(=O)N[C@@H]1CCCN(Cc2ccnc(C(=O)Nc3ccc(-c4cc5c(N6CCOCC6)ncnc5[nH]4)cc3)c2)C1` [Menin-MLL inhibitor 20, tert-butyl N-[(3R)-1-[[2-[[4-(4-morpholin-4-yl-7H-pyrrolo[2,3-d]pyrimidin-6-yl)phenyl]carbamoyl]pyridin-4-yl]methyl]piperidin-3-yl]carbamate], in the data set on MOLM-13, the EC50 worked out at 714 nM, the “EC50 (range in words)” value is “less potent than SNDX-5613” and the “reduction of viability” value was found to be 100%. Also, in the data set with MV(4;11), a half-maximal effect (EC50) was put at 750 nM, the “EC50 (range in words)” value was “less potent than SNDX-5613” and the “reduction of viability” value came to 100%.
Regarding `N#Cc1cc2cc(CN3CCC(Nc4ncnc5sc(CC(F)(F)F)cc45)CC3)ccc2[nH]1` [MI-136, 5-[[4-[[6-(2,2,2-trifluoroethyl)thieno[2,3-d]pyrimidin-4-yl]amino]piperidin-1-yl]methyl]-1H-indole-2-carbonitrile], in the data set with MOLM-13, a half-maximal response (EC50) required 1840 nM, the “EC50 (range in words)” value is “less potent than SNDX-5613” and the “reduction of viability” value stood at 100%. In the data set on MV(4;11), it took 593 nM to reach a half-maximal effect (EC50), the “EC50 (range in words)” value was “less potent than SNDX-5613” and the “reduction of viability” value was determined as 100%.

Usually EC50 stands for the midpoint of the concentration-response curve. The low end stands for a more potent agent, the high end for a less potent agent.
